Legend:
rat [1] = conditions: Fertility (Segment I), sprague dawley, Oral, Gavage/Intubation, dose end: 7 GD
rat [2] = conditions: Fertility (Segment I), sprague dawley, Oral, Gavage/Intubation, dose end: 7 GD; remark: listed apart in the source
rat [3] = conditions: Prenatal developmental toxicity study, sprague dawley, Oral, Gavage/Intubation, dose end: 17 GD
rat [4] = conditions: Sub-acute repeat dose toxicity, sprague dawley, Oral, Gavage/Intubation, dose end: 4 week, group: systemic
rat [5] = conditions: Prenatal developmental toxicity study, sprague dawley, Oral, Gavage/Intubation, dose end: 17 GD; remark: listed apart in the source
dog = conditions: Sub-acute repeat dose toxicity, beagle, Oral, Capsule, dose end: 1 month, group: systemic
rabbit [6] = conditions: Prenatal developmental toxicity study, new zealand white, Oral, Gavage/Intubation, dose end: 19 GD
rat [7] = conditions: Prenatal developmental toxicity study; sprague dawley; Oral; Gavage/Intubation; dose end: 17 GD; group: maternal; systemic / in life observation / body weight / body weight + systemic / in life observation / body weight / body weight gain + systemic / in…
rabbit [8] = conditions: Prenatal developmental toxicity study; new zealand white; Oral; Gavage/Intubation; dose end: 19 GD; group: maternal; systemic / in life observation / body weight / body weight gain + systemic / in life observation / food consumption / food consumption
mouse [9] = conditions: Subchronic oral toxicity in rodents, b6c3f1, Gavage/Intubation, dose end: 14 week, group: systemic
mouse [10] = conditions: Combined chronic toxicity/carcinogenicity, b6c3f1, Oral, Gavage/Intubation, dose end: 105 week, group: systemic
rat [11] = conditions: Prenatal developmental toxicity study; sprague dawley; Oral; Gavage/Intubation; dose end: 20 GD; group: maternal; systemic / in life observation / body weight / body weight gain
rat [12] = conditions: Combined chronic toxicity/carcinogenicity, fischer, Oral, Water, dose end: 24 month, group: systemic
rat [13] = conditions: Developmental neurotoxicity study; sprague dawley; Oral; Gavage/Intubation; dose end: 77 PND; group: cannot be grouped; systemic / in life observation / body weight / body weight
rat [14] = conditions: Developmental neurotoxicity study, fischer, Oral, Gavage/Intubation, dose end: 22 PND, group: cannot be grouped
mouse [15] = conditions: Prenatal developmental toxicity study, cd1, Oral, Gavage/Intubation, dose end: 17 GD
rat [16] = conditions: Neurotoxicity screening battery; long evans; Injection; Intraperitoneal; dose end: 13 week; group: cannot be grouped; systemic / in life observation / clinical signs / abnormal gait + systemic / in life observation / clinical signs / irritability + systemic…
rat [17] = conditions: Subchronic oral toxicity in rodents, fischer, Water, dose end: 93 day
rat [18] = conditions: Developmental neurotoxicity study; wistar; Oral; Gavage/Intubation; dose end: 91 PND; group: cannot be grouped; systemic / in life observation / body weight / body weight + systemic / in life observation / body weight / body weight gain + systemic / in…
mouse [19] = conditions: Multigenerational reproductive toxicity study, cd1, Oral, Water, dose end: 2 generation
[20] = group: maternal, reproductive / reproductive performance / estrous cycle / abnormal + reproductive / reproductive performance / estrous cycle / corpora lutea…
[21] = group: parental, systemic / in life observation / body weight / body weight + systemic / in life observation / body weight / body weight gain
[22] = group: parental, systemic / in life observation / body weight / body weight + systemic / in life observation / body weight / body weight gain + systemic / in…
[23] = group: maternal, reproductive / reproductive performance / estrous cycle / abnormal
[24] = group: parental, systemic / in life observation / body weight / body weight gain
[25] = group: parental, systemic / in life observation / body weight / body weight gain + systemic / in life observation / food consumption / food consumption
[26] = group: developmental, developmental / developmental malformation / trunk / absent genital tubercle + developmental / developmental malformation / trunk / anal …
[27] = group: maternal, systemic / in life observation / body weight / body weight + systemic / in life observation / body weight / body weight gain + systemic / in…
[28] = systemic / clinical chemistry / alanine aminotransferase (alt/sgpt) / alanine aminotransferase (alt/sgpt) + systemic / in life observation…
[29] = systemic / organ weight / salivary glands / absolute + systemic / pathology microscopic / vagina / diestrus
[30] = group: developmental, developmental / developmental malformation / bone / unossified + systemic / in life observation / body weight / fetal weight
[31] = systemic / in life observation / clinical signs / defecation (diarrhea)
[32] = systemic / in life observation / clinical signs / defecation (diarrhea) + systemic / clinical chemistry / alanine aminotransferase (alt/sgpt…
[33] = group: developmental, developmental / developmental malformation / bone / incomplete ossification + developmental / developmental malformation / bone / unossified…
[34] = group: maternal, systemic / in life observation / body weight / body weight gain + systemic / in life observation / food consumption / food consumption
[35] = group: maternal, systemic / in life observation / body weight / body weight gain + systemic / in life observation / food consumption / food consumption + …
[36] = systemic / hematology / erythrocyte (rbc) count differential / erythrocyte (rbc) + systemic / hematology / hematocrit (hct) / hematocrit (…
[37] = systemic / hematology / hemoglobin (hgb) / hemoglobin (hgb)
[38] = systemic / pathology microscopic / ovary / atrophy + systemic / pathology microscopic / ovary / cyst + systemic / pathology microscopic / …
[39] = systemic / pathology microscopic / ovary / cyst + systemic / pathology microscopic / harderian gland / adenoma
[40] = systemic / pathology microscopic / testes / mesothelioma nos + systemic / pathology microscopic / brain / astrocytoma nos + systemic / …
[41] = systemic / in life observation / body weight / offspring (pup) weight + reproductive / reproductive performance / pregnancy index / …
[42] = group: developmental, systemic / in life observation / body weight / fetal weight
[43] = group: maternal, systemic / in life observation / body weight / body weight gain + systemic / in life observation / clinical signs / splayed hindlimbs + …
[44] = group: cholinesterase, cholinesterase / cholinesterase / cholinesterase / cholinesterase (che)
[45] = group: systemic, systemic / clinical chemistry / alkaline phosphatase (alp/alk) / alkaline phosphatase (alp/alk) + systemic / hematology / erythrocyte (rbc) …
[46] = group: parental, systemic / in life observation / body weight / body weight + systemic / organ weight / adrenal gland / absolute + systemic / organ weight / …
[47] = group: reproductive, reproductive / offspring survival early / live fetuses / live fetuses

Compound: CN(C)C(=O)NC1(c2ccccc2)CCN(CC[C@@]2(c3ccc(F)c(F)c3)CN(C(=O)c3ccccc3)CCO2)CC1.Cl
- LEL (rat [1]; [20]): 250 mg/kg/day
- LOAEL (rat [1]; [20]): > 250 mg/kg/day
- NEL (rat [1]; [20]): 70 mg/kg/day
- NOAEL (rat [1]; [20]): ≥ 250 mg/kg/day
- LEL (rat [1]; [21]): 70 mg/kg/day
- LOAEL (rat [1]; [21]): 70 mg/kg/day
- NEL (rat [1]; [22]): 20 mg/kg/day
- NOAEL (rat [1]; [22]): 20 mg/kg/day
- LEL (rat [2]; [23]): 20 mg/kg/day
- LOAEL (rat [2]; [23]): 100 mg/kg/day
- NEL (rat [2]; [23]): < 20 mg/kg/day
- NOAEL (rat [2]; [20]): 20 mg/kg/day
- LEL (rat [2]; [24]): 20 mg/kg/day
- NEL (rat [2]; [24]): < 20 mg/kg/day
- LOAEL (rat [2]; [25]): 100 mg/kg/day
- NOAEL (rat [2]; [25]): 20 mg/kg/day
- LEL (rat [3]; [26]): 500 mg/kg/day
- LOAEL (rat [3]; [26]): 500 mg/kg/day
- NEL (rat [3]; [26]): 100 mg/kg/day
- NOAEL (rat [3]; [26]): 100 mg/kg/day
- LOAEL (rat [3]; [27]): 500 mg/kg/day
- NEL (rat [3]; [27]): 20 mg/kg/day
- NOAEL (rat [3]; [27]): 100 mg/kg/day
- LEL (rat [3]; group: maternal, systemic / in life observation / clinical signs / piloerection + systemic / pathology gross / kidney / reduced size): 100 mg/kg/day
- LOAEL (rat [4]; [28]): 100 mg/kg/day
- NOAEL (rat [4]; [28]): 20 mg/kg/day
- LEL (rat [4]; [29]): 20 mg/kg/day
- NEL (rat [4]; [29]): < 20 mg/kg/day
- LEL (rat [5]; [30]): 250 mg/kg/day
- LOAEL (rat [5]; [30]): 250 mg/kg/day
- NEL (rat [5]; [30]): 70 mg/kg/day
- NOAEL (rat [5]; [30]): 70 mg/kg/day
- LEL (rat [5]; [27]): 250 mg/kg/day
- LOAEL (rat [5]; [27]): 250 mg/kg/day
- NEL (rat [5]; [27]): 70 mg/kg/day
- NOAEL (rat [5]; [27]): 70 mg/kg/day
- LEL (dog; [31]): 20 mg/kg/day
- NEL (dog; [31]): < 20 mg/kg/day
- LOAEL (dog; [32]): > 180 mg/kg/day
- NOAEL (dog; [32]): ≥ 180 mg/kg/day
- LEL (rabbit [6]; [33]): 200 mg/kg/day
- LOAEL (rabbit [6]; [33]): 200 mg/kg/day
- NEL (rabbit [6]; [33]): 60 mg/kg/day
- NOAEL (rabbit [6]; [33]): 60 mg/kg/day
- LEL (rabbit [6]; [34]): 60 mg/kg/day
- LOAEL (rabbit [6]; [34]): 60 mg/kg/day
- NEL (rabbit [6]; [35]): 20 mg/kg/day
- NOAEL (rabbit [6]; [35]): 20 mg/kg/day
- LEL (rat [7]): 250 mg/kg/day
- LOAEL (rat [7]): > 250 mg/kg/day
- NEL (rat [7]): < 250 mg/kg/day
- NOAEL (rat [7]): ≥ 250 mg/kg/day
- LEL (rabbit [8]): 100 mg/kg/day
- LOAEL (rabbit [8]): > 200 mg/kg/day
- NEL (rabbit [8]): 20 mg/kg/day
- NOAEL (rabbit [8]): ≥ 200 mg/kg/day

Compound: C=CC#N [Acrylonitrile]
- LOAEL (mouse [9]; [36]): > 60 mg/kg/day
- NOAEL (mouse [9]; [36]): ≥ 60 mg/kg/day
- LEL (mouse [9]; [37]): 5 mg/kg/day
- NEL (mouse [9]; [37]): < 5 mg/kg/day
- LOAEL (mouse [10]; [38]): 10 mg/kg/day
- NOAEL (mouse [10]; [38]): 2.5 mg/kg/day
- LEL (mouse [10]; [39]): 2.5 mg/kg/day
- NEL (mouse [10]; [39]): < 2.5 mg/kg/day

Compound: C=CC(N)=O [Acrylamide]
- LEL (rat [11]): 7.5 mg/kg/day
- LOAEL (rat [11]): 7.5 mg/kg/day
- NEL (rat [11]): 2.5 mg/kg/day
- NOAEL (rat [11]): 2.5 mg/kg/day
- LEL (rat [12]; systemic / pathology microscopic / testes / mesothelioma nos): 0.1 mg/kg/day
- LOAEL (rat [12]; [40]): > 2 mg/kg/day
- NEL (rat [12]; [40]): 0.01 mg/kg/day
- NOAEL (rat [12]; [40]): ≥ 2 mg/kg/day
- LEL (rat [13]): 5 mg/kg/day
- LOAEL (rat [13]): 5 mg/kg/day
- NEL (rat [13]): < 5 mg/kg/day
- NOAEL (rat [13]): < 5 mg/kg/day
- LEL (rat [14]; systemic / in life observation / body weight / offspring (pup) weight): 1 mg/kg/day
- NEL (rat [14]; systemic / in life observation / body weight / offspring (pup) weight + developmental / developmental landmark / pinna unfolding / pinna …): 0.5 mg/kg/day
- LOAEL (rat [14]; [41]): > 10 mg/kg/day
- NOAEL (rat [14]; [41]): ≥ 10 mg/kg/day
- LEL (mouse [15]; [42]): 45 mg/kg/day
- LOAEL (mouse [15]; [42]): > 45 mg/kg/day
- NEL (mouse [15]; [42]): 15 mg/kg/day
- NOAEL (mouse [15]; [42]): ≥ 45 mg/kg/day
- LOAEL (mouse [15]; [43]): > 45 mg/kg/day
- NEL (mouse [15]; [43]): 3 mg/kg/day
- NOAEL (mouse [15]; [43]): ≥ 45 mg/kg/day
- LEL (mouse [15]; group: maternal, systemic / organ weight / uterus / nos): 15 mg/kg/day
- LEL (rat [16]): 1 mg/kg/day
- LOAEL (rat [16]): > 12 mg/kg/day
- NEL (rat [16]): < 1 mg/kg/day
- NOAEL (rat [16]): ≥ 12 mg/kg/day
- LEL (rat [17]; [44]): 20 mg/kg/day
- LOAEL (rat [17]; [44]): > 20 mg/kg/day
- NEL (rat [17]; [44]): 5 mg/kg/day
- NOAEL (rat [17]; [44]): ≥ 20 mg/kg/day
- LOAEL (rat [17]; [45]): > 20 mg/kg/day
- NOAEL (rat [17]; [45]): ≥ 20 mg/kg/day
- NEL (rat [17]; group: systemic, systemic / hematology / erythrocyte (rbc) count differential / erythrocyte (rbc) + systemic / hematology / hematocrit (hct) / hematocrit (…): 0.2 mg/kg/day
- LEL (rat [17]; group: systemic, systemic / pathology microscopic / nerve / [other]): 1 mg/kg/day
- LEL (rat [18]): 25 mg/kg/day
- LOAEL (rat [18]): > 25 mg/kg/day
- NEL (rat [18]): < 25 mg/kg/day
- NOAEL (rat [18]): ≥ 25 mg/kg/day
- LOAEL (mouse [19]; [46]): > 7.7 mg/kg/day
- NEL (mouse [19]; [46]): 0.86 mg/kg/day
- NOAEL (mouse [19]; [46]): ≥ 7.7 mg/kg/day
- LEL (mouse [19]; group: parental, systemic / organ weight / adrenal gland / absolute + systemic / organ weight / kidney / absolute + systemic / organ weight / liver / …): 2.9 mg/kg/day
- LEL (mouse [19]; [47]): 7.7 mg/kg/day
- LOAEL (mouse [19]; [47]): > 7.7 mg/kg/day
- NOAEL (mouse [19]; [47]): ≥ 7.7 mg/kg/day
